Experiment [1] concerns THP-1 derived macrophage cells. Description: Macrophage polarization by flow cytometry (CD11b, CD80, CD163 MFI). Format: cell-based, human. The following applies: saponin 3 µg/mL, 24 h, PMA-differentiated THP-1, mean ± SD, n = 3. As to the method: To differentiate THP-1 cells into M0-THP-1, cells were seeded at an initial concentration of 1 × 10^6 cells/mL in 6-well plates (Corning, USA) and treated with 15 ng/mL phorbol 12-myristate 13—acetate (PMA, Sigma USA). Then incubate at 5% CO2, 37 °C for 48 h[24]. To evaluate the potential of saponins with/without infectious bronchitis virus (IBV) D274 antigen on macrophage polarization, THP-1 cells were treated with saponins at 3 µg/mL and then incubated for 24 h with or without 4 µL of inactivated IBV D274 antigens (final titer of 1 HA). […] Based on the results of our previous research, the saponin concentration was selected as a non-cytotoxic concentration. At the end of the incubation period, the cells were collected by trypsinization and washed three times with PBS. Following, 1 µL of PE anti-human CD80 (Biolegend, CA), FITC anti-human CD163 (Biolegend, CA), and FITC anti-human CD11b (Biolegend, CA) antibodies were added into the cells pellet and incubated for 45 min at room temperature in the dark. The cells pellets underwent two PBS washes following incubation. Finally, the cells were subsequently analyzed by flow cytometry (BD Accuri, C5). 1 × 10^4 cells were counted for each sample group using flow cytometry. All data are the results of at least three independent experiments carried out in triplicate. Data are presented as mean ± standard error of the mean (SEM) of samples. The untreated stained macrophage cells with anti-human CD80, FITC anti-human CD163, and FITC anti-human CD11b were compared with the results of treated cells to obtain from M0 polarization to M1 and M2 or both.
Figure 2 (a) Saponins without antigen treatment, (b) Saponins treated with antigen. THP-1 cells were treated with 15 ng/ml PMA and 3 µg/ml saponins and 1 HA titer of IBV D274 induced in the saponins with antigen group for 24 h incubation. The macrophage polarization was determined with flow cytometry. Each value represents the mean ± standard deviation of three independents measurements. (P < 0.05*, P < 0.01**, P < 0.001***).

Experiment [2] relates to HeLa human cervical gland carcinoma cells. Briefly: MTT cytotoxicity on HeLa. Format: cell-based. The following applies: 48 h, mean ± standard deviation, n = 3, – = Not detected. On the procedure: (§1) The human leukemia monocyte cell line (THP-1), human lung adenocarcinoma cell line (A549), human breast cancer cells (MDA-MB231), human prostate adenocarcinoma cells (PC3), human malignant glioma cell line (U87MG), human cervical gland carcinoma cells (HeLa), human hepatocellular carcinoma cells (HEP-G2) and normal human lung fibroblast cells (CCD-34-LU) as a healthy cell line in our stock used in this study were purchased from American Type Culture Collection (ATCC). THP-1 cells were cultured in Roswell Park Memorial Institute (RPMI 1640) medium and MDA-MB231, PC3, U87 MG, HeLa, HEP-G2, and CCD-34-LU cells cultivated in Dulbecco’s Modified Eagle’s Medium/Nutrient Mixture F-12 (DMEM/F12) (Gibco, USA) medium supplemented with 10% FBS (Gibco, USA), 100U/mL of penicillin 100 µg/mL of streptomycin (Gibco, USA), and 2 mM L-glutamine (Gibco, USA).
(§2) Cytotoxicity of saponins (1–4) and their prosapogenins (2a–4a) were tested against A549, MDA-MB-231, PC-3, U87MG, HeLa, HepG-2 cancer cells and CCD34-Lu healthy cell line using MTT [3-(4,5-dimethylthiazole-2-yl)-2,5-diphenyltetrazolium bromide)] assay (Acros Organics, New Jersey, USA)[11], [23]. For this purpose, 1 × 10^5 cells/mL of all the cell lines were seeded in 96-well plates (Corning, USA) and cultivated in the at 37 °C overnight. After the incubation, the cells were incubated with different concentrations of saponins (50, 5, and 0.5 µg/mL), and doxorubicin (Sigma, USA) (20, 2, and 0.2 µg/mL) for 48 h at 37 °C. Then, the MTT was added as 20 μL (from the stock concentration of 2.5 mg/mL) to all wells and further incubated for 4 h at 37 °C. Following the incubation, the medium was removed and 150 µL DMSO was added to dissolve the formed formazan crystals. After the formazan crystals were completely dissolved, the optical density (OD) was measured at 570 nm with an UV/Vis microplate spectrophotometer (Thermo Fisher Scientific, USA). All data are the results of at least three independent experiments carried out in triplicate. Data are presented as mean ± standard error of the mean (SEM) of samples. The IC50 value was calculated using the GraphPad Prism 8 (USA) program based on the calculated percent viability values and absorbance values. The percentage of viability was determined by Eq. (1):1 %Viablecells=absorbanceoftreatedcells-absorbanceofblank/absorbanceofcontrol-absorbanceofblank×100

Experiment [3] relates to HepG-2 human hepatocellular carcinoma cells. Description: MTT cytotoxicity on HepG-2. Format: cell-based. The following applies: mean ± standard deviation, n = 3, – = Not detected. As to the method:
as §1, §2

The subject of experiment [4] is PC-3 human prostate adenocarcinoma cells. Description: MTT cytotoxicity on PC-3. Format: cell-based. The following applies: 48 h, mean ± standard deviation, n = 3, – = Not detected. On the procedure:
as §1, §2

Experiment [5] relates to MDA-MB-231 human breast cancer cells. Briefly: MTT cytotoxicity on MDA-MB-231. Format: cell-based. The following applies: mean ± standard deviation, n = 3, – = Not detected. As to the method:
as §1, §2

Experiment [6] concerns A549 human lung adenocarcinoma cell line. Briefly: MTT cytotoxicity on A549. It is filed as cell-based. The following applies: mean ± standard deviation, n = 3, – = Not detected. As to the method:
as §1, §2

Experiment [7] deals with CCD-34Lu normal human lung fibroblast cells. Briefly: MTT cytotoxicity on CCD-34Lu healthy cells. It is filed as cell-based. The following applies: 48 h, mean ± standard deviation, n = 3, – = Not detected. On the procedure: as §1, §2
For experiment [8], the system named is U87MG human malignant glioma cell line. Briefly: MTT cytotoxicity on U87MG. The following applies: 48 h, mean ± standard deviation, n = 3, – = Not detected. It is filed as cell-based. On the procedure:
as §1, §2

Experiment [9] concerns THP-1 originated-macrophage. Briefly: MTT cytotoxicity on THP-1 originated macrophages. The following applies: mean ± standard deviation, n = 3, – = Not detected. Format: cell-based, human.
Setting [10] is: with inactivated IBV D274 antigen (1 HA).

SMILES strings stand for the structures. Marks after values point to notes of the source that are not given here.

By IC50 is commonly meant the concentration at which inhibition is half-maximal. A high value points to lower potency.

In the case of `C[C@@H]1O[C@@H](O[C@H]2[C@H](O[C@H]3CC[C@@]4(C)C(CC[C@]5(C)C4CC=C4C6CC(C)(C)CC[C@]6(C(=O)O[C@@H]6O[C@H](CO[C@@H]7O[C@H](CO)[C@@H](O)[C@H](O)[C@H]7O)[C@@H](O)[C@H](O)[C@H]6O)CC[C@]45C)[C@]3(C)CO)O[C@H](CO)[C@H](O)[C@@H]2O)[C@H](O)[C@H](O)[C@H]1O` (stereo partly drawn) [Compound 4, 3-O-α-L-rhamnopyranosyl-(1 → 2)-β-D-galactopyranosyl-hederagenin-28-O-β-D-glucopyranosyl-(1 → 6)-β-D-glucopyranosyl ester], the figures for the “MFI of CD 11b (M0 marker)” value in [1] (setting [10]) and in [1] (without antigen) were 32,925.30 ± 947.75 and 27,324.70 ± 2398.39, respectively. In addition, the “MFI of CD80 (M1 marker)” value in [1] (setting [10]) is on record as 4593.32 ± 951.60; in experiment [1] (without antigen), 4,380.00 ± 169.38. The “MFI of CD163 (M2 marker)” value is 8203.00 ± 246.09** in experiment [1] (setting [10]) and 6,755.64 ± 206.67** in experiment [1] (without antigen). The IC50 was > 45.2 µM in [2] (Homo sapiens, HeLa); > 45.2 µM in experiment [3] (Homo sapiens, HepG2, 48 h); > 45.2 µM in experiment [4] (Homo sapiens); > 45.2 µM in experiment [5] (Homo sapiens, MDA-MB-231, 48 h); > 45.2 µM in [6] (Homo sapiens, A549, 48 h); > 45.2 µM in experiment [7] (Homo sapiens, Fibroblast). Moreover, the IC50 was > 45.2 µM in experiment [8] (Homo sapiens, U-87 MG) and > 45.2 µM in experiment [9] (Homo sapiens, THP-1, 48 h).
In the case of `C[C@@H]1O[C@@H](O[C@H]2[C@H](O[C@H]3CC[C@@]4(C)[C@@H](CC[C@]5(C)[C@@H]4CC=C4[C@@H]6CC(C)(C)CC[C@]6(C(=O)O)CC[C@]45C)[C@]3(C)CO)O[C@H](CO)[C@H](O)[C@@H]2O)[C@H](O)[C@H](O)[C@H]1O` [Compound 4a, 3-O-α-L-rhamopyranosyl-(1 → 2)-β-D-galactopyranosyl hederagenin], the “MFI of CD 11b (M0 marker)” value was 30,124.70 ± 913.74 in [1] (setting [10]) and 30,031.76 ± 1486.58 in [1] (without antigen). The “MFI of CD80 (M1 marker)” value in experiment [1] (setting [10]) was 4604.40 ± 128.49; in experiment [1] (without antigen), 4,552.00 ± 947.76. Further, the IC50 in experiment [2] is 16.3 ± 4.75 µM; in [3] (48 h), > 64 µM; in experiment [4] it was > 64 µM; in experiment [5] (48 h), 8.43 ± 0.15 µM; in [6] (48 h), 8.13 ± 0.01 µM; in experiment [7] it was > 64 µM. Also, the IC50 in [8] was > 64 µM; in experiment [9] (48 h), 35.7 ± 4.9 µM.

The values above are taken from PMC10560666, “Four new triterpene saponins from Cephalaria speciosa and their potent cytotoxic and immunomodulatory activities” (Scientific Reports, 2023).
